Earlier results in patent publication US7625708B1 (priority 2005, dated 2009).

Assays:
[1] = rabbit, in vivo
[2] = tested on: Glutathion-S-Transferase (GST)
[3] = tested on: NAD(P)H: Quinone Oxidoreductase I (NQO I)
[4] = tested on: Cytochrome P450 1A1 (CYP 1A1)
[5] = tested on: Aldehyde Dehydrogenase (ALDH)
GDNF mRNA = conditions: rat, in vivo

CNC(=O)ON=C(C)SC [methomyl]
detection in the hair shaft [1]: could be detected

Cc1ccc2cc3c(ccc4ccccc43)c3c2c1CC3 [methylcholanthrene]
induction of GST [2]: showed induction of GST (cell culture) | induction of NQO I [3]: showed induction of NQO I (cell culture) | CYP1A1 activity [4]: showed increase CYP1A1 activity (cell | induction of ALDH [5]: showed induction of ALDH (cell culture)

c1ccc(C2(N3CCCCC3)CCCCC2)cc1 [phencyclidine]
GDNF mRNA expression (GDNF mRNA): GDNF mRNA expression increased in rats

CCC1(c2ccccc2)C(=O)NC(=O)NC1=O [phenobarbital]
CYP1A1 activity [4]: showed increase CYP1A1 activity (cell

O=c1cc(-c2ccccc2)oc2ccc3ccccc3c12 [β-naphthaoflavone]
CYP1A1 activity [4]: showed increase CYP1A1 activity (cell
